Results as given in patent US9426996B2, “Use of benzoxaboroles as volatile antimicrobial agents on meats, plants, or plant parts” (AgroFresh Inc., priority 2013, dated 2016).

Key:
[1] = system: Salmonella enterica; assay: in vivo volatile bioassay on fresh beef; settings: S. enterica from beef; 100 mg/L headspace; 2 days at 21° C.
Method: (§1) In order to assess the in vivo activity of volatile antimicrobial Compound A, a volatile bioassay is developed to evaluate the control of Escherichia coli and Salmonella enterica on fresh beef. The beef is washed to remove any natural inoculum by rinsing in warm water for 2 minutes. Two strips, single layer, are placed in a sterile 10.8-cup SnapWare airtight container (Model #109842).
(§2) Each strip is inoculated on the surface by placing 20 μL of either E. coli or S. enterica cell suspensions that are adjusted to an optical density of 0.35 (600 nm), and further diluted 1/10. For determination of efficacy, Compound A powder is introduced into the container with a sublimation device (copper tube heated to 200° C. with fan flow at 0.5 liters per minute (L/min)) at a rate required to achieve a final headspace concentration of 100 mg/L. The containers and their contents are then incubated for 2 days at 21° C. After treatment, the beef is washed, and the wash is collected, serially diluted, plated on nutrient agar, and then incubated for an additional 24 hours at 37° C. Bacterial colonies are counted and expressed as colony forming units (CFU/mL), with the log reduction calculated relative to the control.

[2] = system: Escherichia coli; assay: in vivo volatile bioassay on fresh beef
Method: as §1, §2

[3] = system: Penicillium expansum; assay: in vitro contact fungicide assay (amended PDA); assay type: cell-based; settings: three days at 23° C.
Method: In order to assess the activity of Compound A as a contact fungicide, an in vitro assay is developed. A 6 cm-diameter Petri plate is used. Compound A is amended into full-strength Potato Dextrose Agar (PDA) to achieve a final solution concentration of 10, 2, 0.4, or 0.08 mg/L, and 15-mL volume of solution is added to each plate. After cooling, 1 μL of 1×10^5 per mL Penicillium expansum or Penicillium digitatum spore suspension is spot-pipetted into the center of the agar.
Plates are sealed with a parafilm and placed in an incubator held at 23° C. After three days of storage, the cultures are evaluated for percent growth relative to control based on measurement of fungal colony diameter.

[4] = system: Botrytis cinerea; assay: in vivo strawberry assay comparing fog and sublimation; settings: 10 mg/L, three day treatment plus three days at 21° C.
Method: To compare the ability of Compound A when actively volatilized by different mechanisms, an in vivo assay using strawberry is performed. Eight strawberries are placed in a clamshell with stem end facing downwards. […] The clamshell is placed in a 10.8-cup SnapWare airtight container (Model #109842) and closed with the lids. Compound A is dissolved in acetone and volatilized through a sealable ½ inch side port by an ES-100-H SmartFog system (Reno, Nev.). Alternatively, Compound A, dissolved in acetone, is pipetted onto a cotton strip, where the acetone is allowed to evaporate for five minutes, and then introduced into the container by a sublimation device (copper tube heated to 200° C. with fan flow at 0.5 L/min) to achieve a final headspace concentration of 10 mg/L. The fruits are stored for three days at 21° C. After the three days of treatment, fruit are stored for an additional three days at 21° C., and then evaluated for incidence (%) and severity of disease (0 to 4).

[5] = system: Botrytis cinerea; assay: in vivo sublimation bioassay on fruit, 1 mg/L (Example 31); settings: for Incidence (%) / Severity (0-4): 1 mg/L sublimed, three day treatment plus three days at 21° C.
Method: (§3) To assess the in vivo activity of volatile antimicrobial Compounds A and B (FIG. 1) in fruit, a volatile bioassay is developed using apple, pear, orange, strawberry, grape and blueberry.
(§4) Two apples, 2 oranges, 2 pears, 8 strawberries, 16 grapes or 30 blueberries (per replicate, in duplicate) are placed in a clamshell with the stem end facing up for all fruits except for strawberry (stem end facing downwards). A fresh wound is inoculated with 20 μL 1×10^6 per mL Penicillium expansum spore suspension (apple and pear), 20 μL 1×10^6 per mL Penicillium digitatum spore suspension (orange), and 20 μL (strawberry and grape) or 10 μL (blueberry) of 1×10^6 per mL Botrytis cinerea spore suspension. The clamshells are placed inside a 117 L Rubbermaid storage box (Cat #2244) with lids closed. […] After treatment, fruits are held for an additional three days at 21° C., then evaluated for disease incidence (mm diameter of browning or water-soaked lesions) and pathogen sporulation (mm diameter) for apple, pear and orange, as well as Botrytis cinerea disease incidence (%) and severity (0 to 4) for strawberry, grape and blueberry, with results summarized in Table 30.

[6] = system: Penicillium expansum; assay: as above; settings: 1 mg/L sublimed, three day treatment plus three days at 21° C.
Method: as §3, §4

[7] = system: Penicillium digitatum; assay: as above
Method: as §3, §4

[8] = system: Botrytis cinerea; assay: in vivo strawberry assay, release from cardboard or filter paper; settings: strawberries
From the text: An in vivo assay is used to evaluate the ability of Compound A to volatilize from different materials and control fungal pathogens. Eight strawberries are placed in a clamshell with the stem end facing downwards. […] The clamshells are then placed in a 10.8-cup SnapWare airtight container (Model #109842). As a substrate for Compound A, either a 42.5 mm Whatman #1 filter disk (Cat. No. 1001-042) placed on a watch glass or 10 square centimeter (cm^2) pieces of cardboard typically used for packaging strawberries was used. Compound A is dissolved in acetone and either pipetted on the disk or painted on the cardboard at a rate to achieve a final headspace concentration of 0.4, 2, or 10 mg/L. The acetone is permitted to evaporate for five minutes. The containers are closed, and placed for three days at 21° C. After treatment, fruit are stored for an additional two days at 21° C. and then evaluated for incidence (%) and severity (0 to 4) of disease, with the results summarized in Table 24.

[9] = Orange, 1 mg/L sublimed, three day treatment plus three days at 21° C.

`OB1OCc2cc(F)ccc21` [Compound A] was tested, and the “Log CFU/mL” value [1] was 4.95 Log CFU/mL, the “Log CFU/mL” value ([2]; E. coli from beef, 100 mg/L headspace, 2 days at 21° C.) was 5.09 Log CFU/mL and the Log reduction ([2]; E. coli from beef, 100 mg/L, relative to the control) was 3.17 log. For the same compound, the “reduction of E. coli in percent” value ([2]; beef, 100 mg/L, relative to the control) was greater than 99.9%, the “Incidence (%) P. expansum” value ([3]; 0.08 mg/L) was 93.1% and the “Incidence (%) P. expansum” value ([3]; 0.4 mg/L) was 33.0%. The “Incidence (%) P. expansum” value ([3]; 2 mg/L) was 0.0%, the “Incidence (%) P. expansum” value ([3]; 10 mg/L) was 0.0% and the “Incidence (%)” value ([4]; Fog) was 6.3%. For the same compound, the “Severity (0 to 4)” value ([4]; Fog) was 0.03, the “Incidence (%)” value ([4]; Sublimation) was 0.0% and the “Severity (0 to 4)” value ([4]; Sublimation) was 0.0. The “in vivo antimicrobial control of B. cinerea” value ([5]; 1 mg/L, volatile fungicide on different hosts) was 100%, the “Incidence (%)” value ([5]; Blueberry) was 0.0% and the “Severity (0-4)” value ([5]; Blueberry) was 0.0. For the same compound, the “Incidence (%)” value ([5]; Grape) was 0.0%, the “Severity (0-4)” value ([5]; Grape) was 0.0 and the “Incidence (%)” value ([5]; Strawberry) was 0.0%. The “Severity (0-4)” value ([5]; Strawberry) was 0.0, the “Browning (mm)” value ([6]; Apple) was 0.8 mm and the “Sporulation (mm)” value ([6]; Apple) was 0.0 mm. The “Browning (mm)” value ([6]; Pear) was 4.7 mm, the “Sporulation (mm)” value ([6]; Pear) was 0.0 mm and the “in vivo antimicrobial control of P. digitatum” value ([7]; 1 mg/L, volatile fungicide) was 100%. The “Sporulation (mm)” value [7, 9] was 0.0 mm, the Water soaked lesion [7, 9] was 0.0 mm and the “Incidence (%)” value ([8]; 0.4 mg/L, Cardboard) was 87.5%. For the same compound, the “Severity (0-4)” value ([8]; 0.4 mg/L, Cardboard) was 0.9, the “Incidence (%)” value ([8]; 0.4 mg/L, Filter Paper) was 56.3% and the “Severity (0-4)” value ([8]; 0.4 mg/L, Filter Paper) was 2.5. For the same compound, the “Incidence (%)” value ([8]; 2 mg/L, Cardboard) was 37.5%, the “Severity (0-4)” value ([8]; 2 mg/L, Cardboard) was 0.3 and the “Incidence (%)” value ([8]; 2 mg/L, Filter Paper) was 37.5%. The “Severity (0-4)” value ([8]; 2 mg/L, Filter Paper) was 0.6, the “Incidence (%)” value ([8]; 10 mg/L, Cardboard) was 25% and the “Severity (0-4)” value ([8]; 10 mg/L, Cardboard) was 0.2. The “Incidence (%)” value ([8]; 10 mg/L, Filter Paper) was 18.8% and the “Severity (0-4)” value ([8]; 10 mg/L, Filter Paper) was 0.3.
